{"source": "patent US10441657B2", "about": "“Methods and compositions for self-regulated release of active pharmaceutical ingredient” (Acura Pharmaceuticals, Inc., priority 2012, dated 2019)", "key": {"[1]": {"experiment": "pH of dissolution vessel with calcium carbonate antacid tablets in HCl", "type": "physicochemical", "conditions": "in 10 minutes (FIG. 1)", "experimental": "Two dissolution vessels were prepared: one vessel contained 25 mEq of HCl and a single commercially available calcium carbonate antacid tablet (Tums®), and the other vessel contained 25 mEq of HCl and five calcium carbonate antacid tablets. […] Calcium carbonate has shown a capability as a pH modifier and pH dependent solubility."}, "[2]": {"conditions": "earlier experimentation", "experimental": "Thus, sodium bicarbonate was added to a prototype formulation primarily to control rapid pH elevation and calcium carbonate for a more sustained control of elevated pH."}}}
{"smiles": "O=C([O-])[O-].[Ca+2]", "note": "[calcium carbonate]", "values": [{"measurement": "pH change seen for calcium carbonate", "setting": "[1]", "result": 5}]}
{"smiles": "O=C([O-])O.[Na+]", "note": "[sodium bicarbonate]", "values": [{"measurement": "time to raise acid media from pH 1 to pH 6", "setting": "[2]", "result": "less than 2 minutes"}]}
